# Measurements reported in US20220372040A1, “METTL3 MODULATORS” (Accent Therapeutics, Inc., priority 2020, published 2022).
# Where a name gives a salt, the structure may show the parent alone. Read-outs that look alike come from different tables or passages of the source.
# What was measured:
# Type in all cases: biochemical
# PRMT5-MEP50 = PRMT5-MEP50 (Homo sapiens, UniProt O14744); test: PRMT5 assay (3H-SAM flashplate scintillation); settings: PRMT5-MEP50 2.5 nM, histone H4 peptide 100 nM, 3H-SAM 250 nM, 60 min
# Description: Assays were performed in a 25 μl-volume in 384-well V-bottom polypropylene microplates (Greiner Bio-One, cat. No. 781280) at ambient temperature. Optimized 1× assay buffer was 20 mM Tris-HCl pH 8.0, 1 mM DTT, […]. For compound screening PRMT5-MEP50 (final concentration, f.c.=2.5 nM) was added using a Multidrop Combi (ThermoFisher Scientific, Waltham, Mass.) and preincubated for 5 min. Reactions were started by adding 3′ biotinylated histone H4 peptide acetylated on serine 1 (Ac-[…]-Biotin) (f.c.=100 nM) and 3H-SAM (f.c.=250 nM) substrates. Reactions proceeded for 60 minutes and were quenched with excess non-radioactive SAM (f.c.=15 μM). The reactions were then transferred to streptavidin-coated flashplates and incubated for 2 hours at 25° C. Following two washing cycles with 0.1% Tween-20, the plates were sealed and read on a TopCount (PerkinElmer, Waltham, Mass.) plate-based scintillation counter. For determination of kinetic parameters, reaction times were optimized so that measurements were taken during the initial velocity phase of the reaction.
# METTL16 = molecular target: T1, METTL16 (Homo sapiens, UniProt Q86W50); test: METTL16 assay (3H-SAM flashplate scintillation); settings: METTL16 100 nM, RNA 50 nM, 3H-SAM 200 nM, SAM 800 nM, 20 min
# T1 sequence (Q86W50 1-562): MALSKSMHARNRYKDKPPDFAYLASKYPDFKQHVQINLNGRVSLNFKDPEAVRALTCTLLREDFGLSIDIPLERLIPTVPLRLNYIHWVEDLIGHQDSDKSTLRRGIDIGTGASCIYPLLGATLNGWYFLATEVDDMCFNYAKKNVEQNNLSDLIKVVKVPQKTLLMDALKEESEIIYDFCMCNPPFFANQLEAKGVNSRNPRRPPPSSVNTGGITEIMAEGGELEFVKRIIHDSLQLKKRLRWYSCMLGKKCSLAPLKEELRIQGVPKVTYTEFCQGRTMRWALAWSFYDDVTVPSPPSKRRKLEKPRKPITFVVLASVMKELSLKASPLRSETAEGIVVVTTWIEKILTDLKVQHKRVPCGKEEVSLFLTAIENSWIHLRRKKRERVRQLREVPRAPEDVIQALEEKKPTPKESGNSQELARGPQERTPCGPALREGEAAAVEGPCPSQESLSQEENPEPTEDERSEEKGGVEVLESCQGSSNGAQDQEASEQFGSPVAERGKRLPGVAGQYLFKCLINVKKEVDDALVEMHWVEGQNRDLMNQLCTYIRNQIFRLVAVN
# Description: Assays were performed in a 25 μl-volume in 384-well V-bottom polypropylene microplates (Greiner Bio-One, cat. No. 781280) at ambient temperature. Optimized 1× assay buffer was 20 mM HEPES pH 7.5, 50 mM KCl, 1 mM DTT, 0.01% Tween, 0.01% BSG, 0.004 U/μl RNAseOUT (cat. No. 10777019, ThermoFisher Scientific, Waltham, Mass.). For compound screening METTL16 (final concentration, f.c.=100 nM) was added using a Multidrop Combi (ThermoFisher Scientific, Waltham, Mass.) and preincubated for 5 min. Reactions were started by adding 3′ biotinylated RNA ([…]-biotin) (f.c.=50 nM), 3H-SAM (f.c.=200 nM) and non-radiolabeled SAM (f.c.=800 nM) substrates. Reactions proceeded for 20 minutes and were quenched with excess non-radioactive SAM (f.c.=100 μM). The reactions were then transferred to streptavidin-coated flashplates and incubated for 2 hours at 25° C. Following two washing cycles with 0.1% Tween-20, the plates were sealed and read on a TopCount (PerkinElmer, Waltham, Mass.) plate-based scintillation counter. For determination of kinetic parameters, reaction times were optimized so that measurements were taken during the initial velocity phase of the reaction.
# METTL3/METTL14 = METTL3/METTL14 (Homo sapiens, UniProt Q86U44); test: METTL3-14 standard enzyme assay (3H-SAM flashplate scintillation); settings: METTL3/METTL14 2.5 nM, RNA 100 nM, 3H-SAM 100 nM, 30 min
# Description: METTL3-14 Standard Enzyme Assay
# (§1) Assays were performed in a 25 μl-volume in 384-well V-bottom polypropylene microplates (Greiner Bio-One, cat. No. 781280) at ambient temperature. Optimized 1× assay buffer was 20 mM HEPES pH 7.5, 50 mM KCl, 250 μM MgCl2, 1 mM DTT, 0.01% Tween, 0.01% BSG, 0.004 U/μl RNAseOUT (cat. No. 10777019, ThermoFisher Scientific, Waltham, Mass.). For compound screening METTL3/METTL14 (final concentration, f.c.=2.5 nM) was added using a Multidrop Combi (ThermoFisher Scientific, Waltham, Mass.) and preincubated for 5 min. Reactions were started by adding 3′ biotinylated RNA (UCUGGACUAAA-biotin) (f.c.=100 nM) and 3H-SAM (f.c.=100 nM) substrates. Reactions proceeded for 30 minutes and were quenched with excess non-radioactive SAM (f.c.=15 μM). The reactions were then transferred to streptavidin-coated flashplates and incubated for 2 hours at 25° C. Following two washing cycles with 0.1% Tween-20, the plates were sealed and read on a TopCount (PerkinElmer, Waltham, Mass.) plate-based scintillation counter. For determination of kinetic parameters, reaction times were optimized so that measurements were taken during the initial velocity phase of the reaction.
# METTL1/WDR4 = METTL1/WDR4 (Homo sapiens, UniProt Q9UBP6); test: METTL1 assay (3H-SAM flashplate scintillation)
# Description: as §1, with “METTL1/WDR4” for “METTL3/METTL14”, “f.c.=6.25” for “f.c.=2.5”, “([…]-biotin) (f.c.=25” for “(UCUGGACUAAA-biotin) (f.c.=100”, “(f.c.=60” for “(f.c.=100”, “20” for “30”
# [1] = METTL1/WDR4 6.25 nM, RNA 25 nM, 3H-SAM 60 nM, 20 min, read-out: METTL1 IC50
# Chain of METTL3/METTL14 (Q86U44 whole entry, species assumed): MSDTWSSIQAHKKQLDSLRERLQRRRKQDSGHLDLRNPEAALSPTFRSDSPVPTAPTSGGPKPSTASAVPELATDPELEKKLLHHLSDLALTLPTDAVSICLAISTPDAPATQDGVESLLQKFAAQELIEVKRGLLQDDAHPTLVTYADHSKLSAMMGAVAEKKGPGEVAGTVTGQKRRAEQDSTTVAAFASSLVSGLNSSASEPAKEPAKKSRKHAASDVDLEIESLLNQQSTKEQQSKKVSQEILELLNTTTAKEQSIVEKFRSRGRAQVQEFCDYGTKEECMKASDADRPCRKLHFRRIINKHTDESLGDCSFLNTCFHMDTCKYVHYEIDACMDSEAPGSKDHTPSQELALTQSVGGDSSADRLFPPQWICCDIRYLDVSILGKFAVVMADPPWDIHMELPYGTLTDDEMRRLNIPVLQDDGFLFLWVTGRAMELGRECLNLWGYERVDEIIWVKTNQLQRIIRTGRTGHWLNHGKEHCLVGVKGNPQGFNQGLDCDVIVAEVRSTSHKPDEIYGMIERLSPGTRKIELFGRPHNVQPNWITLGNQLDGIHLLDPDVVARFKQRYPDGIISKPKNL
# Chain of METTL3/METTL14 (Q9HCE5 whole entry partner, species assumed): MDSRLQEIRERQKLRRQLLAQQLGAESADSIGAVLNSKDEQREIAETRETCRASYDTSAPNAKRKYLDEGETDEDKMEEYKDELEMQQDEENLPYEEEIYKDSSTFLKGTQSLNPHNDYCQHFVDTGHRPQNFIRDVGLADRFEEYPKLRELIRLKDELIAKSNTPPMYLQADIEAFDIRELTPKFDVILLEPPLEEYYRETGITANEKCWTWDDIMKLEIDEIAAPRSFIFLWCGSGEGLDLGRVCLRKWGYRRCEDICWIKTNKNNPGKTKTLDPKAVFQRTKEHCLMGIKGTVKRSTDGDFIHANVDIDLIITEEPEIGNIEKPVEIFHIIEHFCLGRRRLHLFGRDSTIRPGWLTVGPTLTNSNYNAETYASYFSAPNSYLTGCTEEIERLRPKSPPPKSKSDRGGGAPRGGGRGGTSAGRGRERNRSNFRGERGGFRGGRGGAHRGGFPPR
# Chain of METTL1/WDR4 (Q9UBP6 whole entry, species assumed): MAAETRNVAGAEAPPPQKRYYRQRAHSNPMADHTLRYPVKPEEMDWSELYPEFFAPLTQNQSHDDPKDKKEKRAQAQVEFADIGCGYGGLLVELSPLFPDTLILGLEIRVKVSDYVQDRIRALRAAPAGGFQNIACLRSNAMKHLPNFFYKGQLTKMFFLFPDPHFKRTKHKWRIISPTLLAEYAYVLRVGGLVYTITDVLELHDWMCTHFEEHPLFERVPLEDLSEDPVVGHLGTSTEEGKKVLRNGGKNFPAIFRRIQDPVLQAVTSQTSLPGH
# Chain of METTL1/WDR4 (P57081 whole entry partner, species assumed): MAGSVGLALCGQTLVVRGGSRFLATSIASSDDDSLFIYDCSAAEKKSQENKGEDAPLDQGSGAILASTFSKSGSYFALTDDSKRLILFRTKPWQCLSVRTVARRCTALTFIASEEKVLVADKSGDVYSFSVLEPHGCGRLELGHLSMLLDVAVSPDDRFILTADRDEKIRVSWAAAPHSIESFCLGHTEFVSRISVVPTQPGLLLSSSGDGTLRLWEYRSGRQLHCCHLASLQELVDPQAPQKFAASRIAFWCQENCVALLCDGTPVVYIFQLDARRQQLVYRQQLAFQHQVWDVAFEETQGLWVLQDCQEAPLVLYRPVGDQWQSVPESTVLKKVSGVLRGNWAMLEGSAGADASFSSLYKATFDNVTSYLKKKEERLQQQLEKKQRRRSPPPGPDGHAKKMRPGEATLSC
# Chain of PRMT5-MEP50 (O14744 whole entry): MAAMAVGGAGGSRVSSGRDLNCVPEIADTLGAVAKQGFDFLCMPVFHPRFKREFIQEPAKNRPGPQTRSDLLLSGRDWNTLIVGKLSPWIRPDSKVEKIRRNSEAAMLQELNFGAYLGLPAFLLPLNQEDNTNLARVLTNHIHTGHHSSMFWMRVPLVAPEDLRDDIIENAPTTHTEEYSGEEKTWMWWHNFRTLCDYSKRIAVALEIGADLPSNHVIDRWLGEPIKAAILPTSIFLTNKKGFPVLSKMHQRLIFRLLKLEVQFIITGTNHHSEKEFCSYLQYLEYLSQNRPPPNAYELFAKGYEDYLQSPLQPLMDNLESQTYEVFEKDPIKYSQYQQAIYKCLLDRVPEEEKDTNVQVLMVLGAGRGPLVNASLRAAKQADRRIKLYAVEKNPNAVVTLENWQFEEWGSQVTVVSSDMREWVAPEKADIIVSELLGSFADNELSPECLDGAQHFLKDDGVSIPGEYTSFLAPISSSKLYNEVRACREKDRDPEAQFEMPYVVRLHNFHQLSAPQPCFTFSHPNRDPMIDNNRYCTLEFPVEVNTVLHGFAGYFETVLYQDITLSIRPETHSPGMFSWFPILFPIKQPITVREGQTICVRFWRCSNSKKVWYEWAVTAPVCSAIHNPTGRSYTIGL
# Chain of PRMT5-MEP50 (Q9BQA1 whole entry partner): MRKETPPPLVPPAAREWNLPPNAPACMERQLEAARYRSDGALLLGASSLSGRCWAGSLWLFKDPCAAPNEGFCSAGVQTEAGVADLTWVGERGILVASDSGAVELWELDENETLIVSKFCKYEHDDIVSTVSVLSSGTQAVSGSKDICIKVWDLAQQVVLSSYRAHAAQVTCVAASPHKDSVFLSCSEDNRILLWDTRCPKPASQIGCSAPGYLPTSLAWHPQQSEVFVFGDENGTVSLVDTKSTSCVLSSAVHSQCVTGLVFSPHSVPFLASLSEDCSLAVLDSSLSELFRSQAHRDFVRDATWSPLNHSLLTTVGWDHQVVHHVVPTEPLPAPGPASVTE
Structure (SMILES),IC50 (PRMT5-MEP50) [nM],IC50 (METTL16) [nM],IC50 (METTL3/METTL14) [nM],IC50 (METTL1/WDR4; [1]) [nM],IC50 (METTL1/WDR4) [nM]
CNc1ccc2ccc(OCc3cc(-n4cc(Cl)c5c(N)ncnc54)cnc3N)cc2n1 [Compound I-28],> 1000,> 1000,10 to 100,> 1000,
CNc1ccc2ccc(OCc3ccnc(-n4cc(Cl)c5c(N)ncnc54)c3)cc2n1 [Compound I-85],> 1000,> 1000,100 to 1000,> 1000,
Nc1ncnc2c1c(Cl)cn2-c1cccc(COc2ccc3ccc(NCC4CC4)nc3c2)c1 [Compound I-67],> 1000,> 1000,100 to 1000,> 1000,
C[C@H]1CCN1c1ccc2ccc(OCc3cncc(-n4cc(C5CCCC5)c5c(N)ncnc54)c3)cc2n1 [Compound I-125],> 1000,> 1000,10 to 100,> 1000,
CNc1ccc2ccc(OCc3cc(C#N)cc(-n4ccc5c(N)ncnc54)c3)cc2n1 [Compound I-119],> 1000,> 1000,100 to 1000,> 1000,
CNc1ccc2ccc(CN(C)c3cccc(-n4cc(Br)c5c(N)ncnc54)c3)cc2n1 [Compound I-69],> 1000,> 1000,> 1000,> 1000,
CNc1ccc2ccc(OCc3cccc(-c4c[nH]c5c(N)ncnc45)c3)cc2n1 [Compound I-71],> 1000,> 1000,10 to 100,> 1000,
Nc1ncnc2c1ccn2-c1cncc(COc2ccc3ccc(N4CCCC4)nc3c2)c1 [Compound I-26],> 1000,> 1000,10 to 100,,
"Nc1ncnc2c1c(Cl)cn2-c1nnc(COc2ccc3ccc(N4CCCC4)nc3c2)s1 [Compound I-38, 5-chloro-7-(5-(((2-(pyrrolidin-1-yl)quinolin-7-yl)oxy)methyl)-1,3,4-thiadiazol-2-yl)-7H-pyrrolo[2,3-d]pyrimidin-4-amine trifluoroacetate]",> 1000,,> 1000,,> 1000
"CNc1ccc2ccc(COc3cncc(-n4ccc5c(N)ncnc54)c3)cc2n1 [Compound I-22, 7-{[(5-{4-amino-7H-pyrrolo[2,3-d]pyrimidin-7-yl}pyridin-3-yl)oxy]methyl}-N-methylquinolin-2-amine]",> 1000,,10 to 100,> 1000,
Nc1ncnc2c1ccn2-c1cncc(COc2ccc3c(=O)cc[nH]c3c2)c1 [Compound I-88],> 1000,,> 1000,> 1000,
CNc1ccc2ccc(OCc3cc(-n4cc(Cl)c5c(N)ncnc54)cnc3NC)cc2n1 [Compound I-13],> 1000,,10 to 100,> 1000,

# Further lines, with some results ahead:
IC50 (PRMT5-MEP50) [nM],IC50 (METTL16) [nM],IC50 (METTL3/METTL14) [nM],Structure (SMILES),IC50 (METTL1/WDR4; [1]) [nM],IC50 (METTL1/WDR4) [nM]
> 1000,> 1000,10 to 100,CNc1ccc2ccc(CCc3cncc(-n4cc(Cl)c5c(N)ncnc54)c3)cc2n1 [Compound I-51],,
> 1000,> 1000,10 to 100,Cc1cc(N)c2ccc(OCc3cncc(-n4cc(Cl)c5c(N)ncnc54)c3)cc2n1 [Compound I-53],,
> 1000,> 1000,10 to 100,Nc1ncnc2c1c(Cl)cn2-c1cncc(COc2ccc3ccc(N4CCCC4)nc3c2)c1 [Compound I-40],,
> 1000,> 1000,> 1000,CNc1ccc2ccc(OCc3cncc(-n4ccc5c(N)nc(NC)nc54)c3)cc2n1 [Compound I-50],,
> 1000,> 1000,> 1000,C=CC(=O)N(CCC(=O)O)c1nc(N)c2ccn(-c3cncc(COc4ccc5ccc(NC)nc5c4)c3)c2n1 [Compound I-41],,
> 1000,> 1000,> 1000,C=CC(=O)Nc1nc(N)c2ccn(-c3cncc(COc4ccc5ccc(NC)nc5c4)c3)c2n1 [Compound I-31],,
> 1000,> 1000,100 to 1000,CNc1ccc2ccc(OCc3cncc(-n4cc(C5CCCC5)c5cncnc54)c3)cc2n1 [Compound I-57],,
> 1000,> 1000,100 to 1000,CNc1ccc2ccc(OCc3cc(OC)cc(-n4cc(Cl)c5c(N)ncnc54)c3)cc2n1 [Compound I-82],,
> 1000,> 1000,> 1000,CNc1ccc2ccc(OCc3cc(-n4cc(Cl)c5c(N)ncnc54)ccc3OC)cc2n1 [Compound I-83],,
> 1000,> 1000,100 to 1000,CNc1ccc2ccc(OCc3cncc(-n4ccc5c(N)nc(N)nc54)c3)cc2n1 [Compound I-56],,
> 1000,> 1000,10 to 100,CNc1ccc2ccc(OCc3cccc(-n4cc(Br)c5c(N)ncnc54)c3)cc2n1 [Compound I-43],,
> 1000,> 1000,10 to 100,CNc1ccc2ccc(OCc3cncc(-n4cc(CCN(C)C)c5c(N)ncnc54)c3)cc2n1 [Compound I-27],,
> 1000,> 1000,10 to 100,CC(C)Nc1ccc2ccc(OCc3cncc(-n4cc(Cl)c5c(N)ncnc54)c3)cc2n1 [Compound I-39],,
> 1000,> 1000,10 to 100,CNc1ccc2ccc(OCc3cncc(-n4ccc5c(C)ncnc54)c3)cc2n1 [Compound I-44],,
> 1000,> 1000,> 1000,CNc1ccc2ccc(OCc3cncc(-n4ccc5c(N)nc(N(C)C)nc54)c3)cc2n1 [Compound I-49],,
